According to patent publication US12540141B2, “Spiropyrrolidine derived antiviral agents” (priority 2020, dated 2026):

Biological target: SARS-CoV-2 3CL-protease (Severe acute respiratory syndrome coronavirus 2, UniProt P0DTD1)
Assay: SARS-CoV-2 3C-Like (3CL) Protease Fluorescence Assay (FRET)
Format: biochemical
Conditions: SARS-CoV-2 3CL-protease 10 nM, 30 min preincubation at RT, substrate 40 μM

SMILES: CN(C(=O)c1cc2cccnc2[nH]1)[C@@H](CC1CC1)C(=O)N1C[C@]2(C[C@H]1C#N)C(=O)Nc1ccc(Cl)cc12 [Example 459]
- IC50: < 100 nM

SMILES: Cc1ccnc2[nH]c(C(=O)N(C)[C@@H](CC3CC3)C(=O)N3C[C@]4(C[C@H]3C#N)C(=O)Nc3ccc(Cl)cc34)cc12 [Example 460]
- IC50: < 100 nM

SMILES: Cc1cnc2[nH]c(C(=O)N(C)[C@@H](CC3CC3)C(=O)N3C[C@]4(C[C@H]3C#N)C(=O)Nc3ccc(Cl)cc34)cc2c1 [Example 461]
- IC50: < 100 nM

SMILES: Cc1ccc2cc(C(=O)N(C)[C@@H](CC3CC3)C(=O)N3C[C@]4(C[C@H]3C#N)C(=O)Nc3ccc(Cl)cc34)[nH]c2n1 [Example 462]
- IC50: < 100 nM

SMILES: CN(C(=O)c1nc2cccnc2[nH]1)[C@@H](CC1CC1)C(=O)N1C[C@]2(C[C@H]1C#N)C(=O)Nc1ccc(Cl)cc12 [Example 463]
- IC50: < 100 nM

SMILES: CC(C)C[C@@H](C(=O)N1C[C@]2(C[C@H]1C#N)C(=O)Nc1ccccc12)N(C)C(=O)c1cc2cccnc2[nH]1 [Example 464]
- IC50: < 100 nM

SMILES: Cc1ccc2cc(C(=O)N(C)[C@@H](CC(C)C)C(=O)N3C[C@]4(C[C@H]3C#N)C(=O)Nc3ccccc34)[nH]c2n1 [Example 465]
- IC50: < 100 nM

SMILES: CN(C(=O)c1cc2cccnc2[nH]1)[C@@H](CC(C)(C)F)C(=O)N1C[C@]2(C[C@H]1C#N)C(=O)Nc1ccccc12 [Example 466]
- IC50: < 100 nM

SMILES: Cc1ccc2cc(C(=O)N(C)[C@@H](CC(C)(C)F)C(=O)N3C[C@]4(C[C@H]3C#N)C(=O)Nc3ccccc34)[nH]c2n1 [Example 467]
- IC50: < 100 nM

SMILES: CC(C)C[C@@H](C(=O)N1C[C@]2(C[C@H]1C#N)C(=O)Nc1ccc(Cl)cc12)N(C)C(=O)c1cc2cccnc2[nH]1 [Example 468]
- IC50: < 100 nM

SMILES: Cc1ccc2cc(C(=O)N(C)[C@@H](CC(C)C)C(=O)N3C[C@]4(C[C@H]3C#N)C(=O)Nc3ccc(Cl)cc34)[nH]c2n1 [Example 469]
- IC50: < 100 nM

SMILES: CN(C(=O)c1cc2cccnc2[nH]1)[C@@H](CC(C)(C)F)C(=O)N1C[C@]2(C[C@H]1C#N)C(=O)Nc1ccc(Cl)cc12 [Example 470]
- IC50: < 100 nM

SMILES: Cc1ccc2cc(C(=O)N(C)[C@@H](CC(C)(C)F)C(=O)N3C[C@]4(C[C@H]3C#N)C(=O)Nc3ccc(Cl)cc34)[nH]c2n1 [Example 471]
- IC50: < 100 nM

SMILES: [2H]C([2H])([2H])N(C(=O)c1cc2c(F)cc(F)cc2[nH]1)[C@@H](CC(C)(C)F)C(=O)N1C[C@]2(C[C@H]1C#N)C(=O)Nc1cc(C(F)(F)F)ccc12 [Example 472, N—((S)-1-((3R,5′S)-5′-cyano-2-oxo-6-(trifluoromethyl)spiro[indoline-3,3′-pyrrolidin]-1′-yl)-4-fluoro-4-methyl-1-oxopentan-2-yl)-4,6-difluoro-N-(methyl-d3)-1H-indole-2-carboxamide]
- IC50: < 100 nM

SMILES: CN(C(=O)C1(c2ccncc2)CC1)[C@@H](CC(C)(C)F)C(=O)N1C[C@]2(C[C@H]1C#N)C(=O)Nc1ccc(Cl)cc12 [Example 473, N—((S)-1-((3R,5′S)-5-chloro-5′-cyano-2-oxospiro[indoline-3,3′-pyrrolidin]-1′-yl)-4-fluoro-4-methyl-1-oxopentan-2-yl)-N-methyl-1-(pyridin-4-yl)cyclopropane-1-carboxamide]
- IC50: < 100 nM

SMILES: [2H]C([2H])([2H])N(C(=O)Cc1ccncc1)[C@@H](CC(C)(C)F)C(=O)N1C[C@]2(C[C@H]1C#N)C(=O)Nc1ccc(Cl)cc12 [Example 474]
- IC50: < 100 nM

SMILES: [2H]C([2H])([2H])N(C(=O)C1(c2ccncc2)CC1)[C@@H](CC(C)(C)F)C(=O)N1C[C@]2(C[C@H]1C#N)C(=O)Nc1ccc(Cl)cc12 [Example 475]
- IC50: < 100 nM

SMILES: CN(C(=O)Cc1cccnc1)[C@@H](CC(C)(C)F)C(=O)N1C[C@]2(C[C@H]1C#N)C(=O)Nc1ccc(Cl)cc12 [Example 476]
- IC50: < 100 nM

SMILES: CN(C(=O)Cc1ccncc1)[C@@H](CC(C)(C)F)C(=O)N1C[C@]2(C[C@H]1C#N)C(=O)Nc1ccc(Cl)cc12 [Example 477]
- IC50: < 100 nM

SMILES: CN(C(=O)C1(c2ccccn2)CC1)[C@@H](CC(C)(C)F)C(=O)N1C[C@]2(C[C@H]1C#N)C(=O)Nc1ccc(Cl)cc12 [Example 478]
- IC50: < 100 nM

SMILES: CN(C(=O)C1(c2cccnc2)CC1)[C@@H](CC(C)(C)F)C(=O)N1C[C@]2(C[C@H]1C#N)C(=O)Nc1ccc(Cl)cc12 [Example 479]
- IC50: < 100 nM

SMILES: CN(C(=O)C(F)(F)c1ccncc1)[C@@H](CC(C)(C)F)C(=O)N1C[C@]2(C[C@H]1C#N)C(=O)Nc1ccc(Cl)cc12 [Example 480]
- IC50: < 100 nM

SMILES: CN(C(=O)C(F)(F)c1ccccn1)[C@@H](CC(C)(C)F)C(=O)N1C[C@]2(C[C@H]1C#N)C(=O)Nc1ccc(Cl)cc12 [Example 481]
- IC50: < 100 nM

SMILES: CN(C(=O)C(F)(F)c1cccnc1)[C@@H](CC(C)(C)F)C(=O)N1C[C@]2(C[C@H]1C#N)C(=O)Nc1ccc(Cl)cc12 [Example 482]
- IC50: < 100 nM

SMILES: CN(C(=O)Cc1ccccn1)[C@@H](CC(C)(C)F)C(=O)N1C[C@]2(C[C@H]1C#N)C(=O)Nc1ccc(Cl)cc12 [Example 483]
- IC50: < 100 nM

SMILES: CN(C(=O)Cc1cnccn1)[C@@H](CC(C)(C)F)C(=O)N1C[C@]2(C[C@H]1C#N)C(=O)Nc1ccc(Cl)cc12 [Example 484]
- IC50: < 100 nM

SMILES: CN(C(=O)Cc1cccc(C(F)(F)F)n1)[C@@H](CC(C)(C)F)C(=O)N1C[C@]2(C[C@H]1C#N)C(=O)Nc1ccc(Cl)cc12 [Example 485]
- IC50: 100 to 1000 nM

SMILES: Cc1cccc(C(F)(F)C(=O)N(C)[C@@H](CC(C)(C)F)C(=O)N2C[C@]3(C[C@H]2C#N)C(=O)Nc2ccc(Cl)cc23)n1 [Example 486]
- IC50: < 100 nM

SMILES: Cc1cccc(CC(=O)N(C)[C@@H](CC(C)(C)F)C(=O)N2C[C@]3(C[C@H]2C#N)C(=O)Nc2ccc(Cl)cc23)n1 [Example 487]
- IC50: < 100 nM

SMILES: CC(C)C[C@@H](C(=O)N1C[C@]2(C[C@H]1C#N)C(=O)Nc1ccccc12)N(C)C(=O)c1cc2cc(C(F)(F)F)cnc2[nH]1 [Example 488]
- IC50: < 100 nM

SMILES: CC(C)C[C@@H](C(=O)N1C[C@]2(C[C@H]1C#N)C(=O)Nc1ccccc12)N(C)C(=O)c1cc2cncnc2[nH]1 [Example 489]
- IC50: < 100 nM

SMILES: CC(C)C[C@@H](C(=O)N1C[C@]2(C[C@H]1C#N)C(=O)Nc1ccccc12)N(C)C(=O)c1cc2nccnc2[nH]1 [Example 490]
- IC50: < 100 nM

SMILES: CC(C)C[C@@H](C(=O)N1C[C@]2(C[C@H]1C#N)C(=O)Nc1ccccc12)N(C)C(=O)c1cc2ccc(C(C)C)nc2[nH]1 [Example 491]
- IC50: < 100 nM

SMILES: N#C[C@@H]1C[C@@]2(CN1C(=O)[C@H](CC1CC1)NC(=O)OCc1c(F)cccc1F)C(=O)Nc1ccc(Cl)cc12 [Example 492, 2,6-difluorobenzyl ((S)-1-((3R,5′S)-5-chloro-5′-cyano-2-oxospiro[indoline-3,3′-pyrrolidin]-1′-yl)-3-cyclopropyl-1-oxopropan-2-yl)carbamate]
- IC50: < 100 nM

SMILES: N#C[C@@H]1C[C@@]2(CN1C(=O)[C@H](CC1CC1)NC(=O)OCc1ccc(F)cc1F)C(=O)Nc1ccc(Cl)cc12 [Example 493]
- IC50: < 100 nM

SMILES: C[C@@H](OC(=O)N[C@@H](CC(C)(C)C)C(=O)N1C[C@]2(C[C@H]1C#N)C(=O)Nc1ccc(Cl)cc12)c1ccc(F)cc1 [Example 495]
- IC50: < 100 nM

SMILES: CC(C)(C)C[C@H](NC(=O)OC(C)(C)c1ccc(F)cc1)C(=O)N1C[C@]2(C[C@H]1C#N)C(=O)Nc1ccc(Cl)cc12 [Example 496]
- IC50: > 1000 nM

SMILES: CC(C)C[C@@H](C(=O)N1C[C@]2(C[C@H]1C(=O)O)C(=O)Nc1ccc(Cl)cc12)N(C)C(=O)c1cc2c(F)cc(F)cc2[nH]1 [Example 497, (3R,5′S)-5-chloro-1′-(N-(4,6-difluoro-1H-indole-2-carbonyl)-N-methyl-L-leucyl)-2-oxospiro[indoline-3,3′-pyrrolidine]-5′-carboxylic acid]
- IC50: > 1000 nM

SMILES: C=C(C)c1ccc2c(c1)[C@@]1(C[C@@H](C#N)N(C(=O)[C@H](CC(C)C)N(C)C(=O)c3cc4c(F)cc(F)cc4[nH]3)C1)C(=O)N2 [Example 498, N—((S)-1-((3R,5′S)-5′-cyano-2-oxo-5-(prop-1-en-2-yl)spiro[indoline-3,3′-pyrrolidin]-1′-yl)-4-methyl-1-oxopentan-2-yl)-4,6-difluoro-N-methyl-1H-indole-2-carboxamide]
- IC50: < 100 nM

SMILES: CC(=O)c1ccc2c(c1)[C@@]1(C[C@@H](C#N)N(C(=O)[C@H](CC(C)C)N(C)C(=O)c3cc4c(F)cc(F)cc4[nH]3)C1)C(=O)N2 [Example 499]
- IC50: < 100 nM

SMILES: CC(C)C[C@@H](C(=O)N1C[C@]2(C[C@H]1C#N)C(=O)Nc1ccc(S(C)(=O)=O)cc12)N(C)C(=O)c1cc2c(F)cc(F)cc2[nH]1 [Example 500, N—((S)-1-((3R,5′S)-5′-cyano-5-(methylsulfonyl)-2-oxospiro[indoline-3,3′-pyrrolidin]-1′-yl)-4-methyl-1-oxopentan-2-yl)-4,6-difluoro-N-methyl-1H-indole-2-carboxamide]
- IC50: < 100 nM

SMILES: COC(=O)c1ccc2c(c1)[C@@]1(C[C@@H](C#N)N(C(=O)[C@H](CC(C)C)N(C)C(=O)c3cc4c(F)cc(F)cc4[nH]3)C1)C(=O)N2 [Example 501, methyl (3R,5′S)-5′-cyano-1′-(N-(4,6-difluoro-1H-indole-2-carbonyl)-N-methyl-L-leucyl)-2-oxospiro[indoline-3,3′-pyrrolidine]-5-carboxylate]
- IC50: < 100 nM

SMILES: CC(C)C[C@@H](C(=O)N1C[C@]2(C[C@H]1C#N)C(=O)Nc1ccc(C(=O)N3CCOCC3)cc12)N(C)C(=O)c1cc2c(F)cc(F)cc2[nH]1 [Example 502, N—((S)-1-((3R,5′S)-5′-cyano-5-(morpholine-4-carbonyl)-2-oxospiro[indoline-3,3′-pyrrolidin]-1′-yl)-4-methyl-1-oxopentan-2-yl)-4,6-difluoro-N-methyl-1H-indole-2-carboxamide]
- IC50: < 100 nM

SMILES: CC(C)C[C@@H](C(=O)N1C[C@]2(C[C@H]1C#N)C(=O)Nc1ccc(N=[N+]=[N-])cc12)N(C)C(=O)c1cc2c(F)cc(F)cc2[nH]1 [Example 503, N—((S)-1-((3R,5′S)-5-azido-5′-cyano-2-oxospiro[indoline-3,3′-pyrrolidin]-1′-yl)-4-methyl-1-oxopentan-2-yl)-4,6-difluoro-N-methyl-1H-indole-2-carboxamide]
- IC50: < 100 nM
